Like-named read-outs stand apart in the source and are kept apart here.
Legend:
[1] = test system: ACH3 (acetylated histone H3); test: Western blotting for ACH3 in hippocampus after administration; format: in vivo, mice
Description: Two and four hrs after its administration, the mice were sacrificed and hippocampi were extracted. […] Purity was verified through Nuclear Magnetic Resonance (NMR) spectroscopy. […] Hippocampus extraction was made at 3 different time points (0.5, 1 and 2 hrs post treatment). A western blotting for ACH3 was then performed.

[2] = Pharmacokinetics and BBB penetration after i.p. and i.v. administration (LC-MS/MS); format: in vivo, BALB/c mice; details: 20 mg/kg; for Kp: brain/plasma
Description: After i.p. and i.v. administration at 20 mg/kg to BALB/c mice, plasma and brain concentrations were determined by LC-MS/MS.

[3] = test system: wild-type mice; test: Contextual fear conditioning; format: in vivo; details: for freezing 24 h after training: vs WT vehicle mice, single tone pairing with 0.35 mA foot shock
Description: Contextual fear conditioning was performed to assess whether compound 1 is capable of enhancing memory. This type of cognitive test is much faster than other behavioral tasks that require multiple days of training and testing (J Clin Invest, 2004. 114(11): 1624-34; herein incorporated by reference in its entirety). The conditioning chamber was in a sound-attenuating box. A clear Plexiglas window allowed the experimenter to film the mouse performance with a camera placed on a tripod and connected to the Freezeframe software (MED Ass. Inc.). To provide background white noise (72 dB), a single computer fan was installed in one of the sides of the sound-attenuating chamber. […] The floor was removable, and after each experimental subject, it was cleaned with 75% ethanol and then with water. Only one animal at a time was present in the experimentation […].
[…] The mice remained in the chamber for an additional 30 sec after the end of the last pairing, after which they were returned to their home cages. Contextual fear conditioning was assayed 24 hr after training by replacing the animals in the conditioning context for a 5 min period, during which the incidence of freezing (immobile except for respiration) was recorded. […]
Freezing behavior, defined as the absence of all movement except for that necessitated by breathing, was scored using the Freezeview software.
To evaluate contextual fear learning, freezing was measured for 5 min (consecutively) in the chamber in which the mice was trained 24 hr after training. To evaluate cued fear learning, following contextual testing, the mice were placed in a novel context (triangular cage with smooth flat floor) for 2 min (pre-CS test), after which they were exposed to the CS for 3 min (CS test), and freezing was measured. Sensory perception of the shock was determined through threshold assessment. […] Initially, a […] shock was delivered for 1 sec, and the animal behavior was evaluated for flinching, jumping, and vocalization. […]

[4] = Acute toxicity experiments; format: in vivo; details: i.p.
[5] = test system: HDAC 1, 3, 5, 6, 7, 8, 10, 11, and sirt1-2; test: HDAC activity assays, summary over the panel; format: biochemical; details: HDAC 1, 3, 5, 6, 7, 8, 10, 11, sirt1-2
Description: Assay Conditions. A series of dilution of the test compounds were prepared with 10% DMSO in assay buffer and 5 μl of the dilution was added to a 50 μl reaction so that the final concentration of DMSO is 1% in all of reactions. All of the enzymatic reactions were conducted in duplicate at 37° C. for 30 minutes except of HDAC11 at room temperature for 3 hours. The 50 μl reaction mixture contains HDAC assay buffer, 5 μg BSA, an HDAC substrate, an HDAC enzyme and a test compound. After enzymatic reactions, 50 μl of HDAC Developer was added to each well and the plate was incubated at room temperature for an additional 20 minutes. Fluorescence intensity was measured at an excitation of 360 nm and an emission of 460 nm using a Tecan Infinite M1000 microplate reader.
Data Analysis. HDAC activity assays were performed in duplicates at each concentration. The fluorescent intensity data were analyzed using the computer software, Graphpad Prism. In the absence of the compound, the fluorescent intensity (Ft) in each data set was defined as 100% activity. In the absence of HDAC, the fluorescent intensity (Fb) in each data set was defined as 0% activity. […] The percent activity in the presence of each compound was calculated according to the following equation: % activity=(F−Fb)/(Ft−Fb), where F=the fluorescent intensity in the presence of the compound. […]

CCOc1cccc(OCCN(C)C)c1C(=O)Nc1ccc(Cl)c(C(F)(F)F)c1 [Compound 1]
ACH3 in hippocampus ([1]; 50 mg/kg i.p., 2 and 4 hrs, FIG. 1): increase ACH3 | ACH3 levels in hippocampus ([1]; 5, 10, 20 mg/Kg i.p. in saline, 0.5, 1, 2 hrs, except 1 hr-10 mg/kg, FIG. 2): dramatically increased ACH3 levels | Kp ([2]; BALB/c, mouse, ip, IP, read-out: AUC0-t ratio brain/plasma): 8.2 | Kp ([2]; BALB/c, mouse, ip, IP, read-out: AUC0-∞ ratio brain/plasma): 8.1 | Kp ([2]; BALB/c, mouse, ip, IP, read-out: Cmax ratio brain/plasma): 5.8 | Kp ([2]; BALB/c, mouse, iv, IV, read-out: AUC0-t ratio brain/plasma): 10.8 | Kp ([2]; BALB/c, mouse, iv, IV, read-out: AUC0-∞ ratio brain/plasma): 11.2 | Kp ([2]; BALB/c, mouse, iv, IV, read-out: Cmax ratio brain/plasma): 13.1 | Tmax ([2]; BALB/c, mouse, intraperitoneal, brain, read-out: Tmax in the brain (converted)): 15 min | half-life ([2]; BALB/c, mouse, ip, i.p., brain and plasma, read-out: elimination half-lives in the brain and plasma): ~40 min | Cmax ([2]; BALB/c, mouse, IP, brain): 4880 ng/g | MRT ([2]; BALB/c, mouse, IP, brain): 61.8 min | Tmax ([2]; BALB/c, mouse, IP, brain, read-out: Tmax): 15 min | half-life ([2]; BALB/c, mouse, IP, brain, read-out: t½ (converted)): 37.8 min | AUC(0-inf) ([2]; BALB/c, mouse, IP, plasma): 813 ng·h/mL | Cmax ([2]; BALB/c, mouse, IP, plasma): 843 ng/mL | MRT ([2]; BALB/c, mouse, IP, plasma): 51 min | AUC0-t ([2]; BALB/c, mouse, IP, plasma, read-out: AUC0-t): 806 ng·h/mL | Tmax ([2]; BALB/c, mouse, IP, plasma, read-out: Tmax): 15 min | half-life ([2]; BALB/c, mouse, IP, plasma, read-out: t½ (converted)): 36 min | Cmax ([2]; BALB/c, mouse, IV, brain): 27900 ng/g | MRT ([2]; BALB/c, mouse, IV, brain): 44.4 min | Tmax ([2]; BALB/c, mouse, IV, brain, read-out: Tmax): 7.5 min | half-life ([2]; BALB/c, mouse, IV, brain, read-out: t½ (converted)): 37.8 min | AUC(0-inf) ([2]; BALB/c, mouse, IV, plasma): 2020 ng·h/mL | Cmax ([2]; BALB/c, mouse, IV, plasma): 2130 ng/mL | MRT ([2]; BALB/c, mouse, IV, plasma): 50.4 min | AUC0-t ([2]; BALB/c, mouse, IV, plasma, read-out: AUC0-t): 1970 ng·h/mL | Tmax ([2]; BALB/c, mouse, IV, plasma, read-out: Tmax): 7.5 min | half-life ([2]; BALB/c, mouse, IV, plasma, read-out: t½ (converted)): 42 min | AUC0-t ([2]; IP, brain): 6493 ng·h/g | AUC0-∞ ([2]; IP, brain): 6564 ng·h/g | F ([2]; IP, brain): 29.2% | F ([2]; IP, plasma): 41.0% | AUC0-t ([2]; IV, brain): 22222 ng·h/g | AUC0-∞ ([2]; IV, brain): 22581 ng·h/g | amount in the brain compared with plasma ([2]; i.p. and i.v.): higher than that in the plasma | freezing 24 h after training ([3]; 5 mg/kg): froze nearly twice as often | freezing 24 h after training ([3]; 20 mg/kg): froze nearly twice as often | memory effect ([3]; weaker training protocol): worked as a memory enhancer | dose without any adverse effects, acute toxicity [4]: up to 300 mg/kg | HDAC inhibition (in words) [5]: does not inhibit HDACs | HDAC inhibition (in words) ([5]; listed as compound 1): did not interfere with p300 and HDAC activity

Source: patent US9809532B2, “Uses of histone acetyltransferase activators” (THE TRUSTEES OF COLUMBIA UNIVERSITY IN THE CITY OF NEW YORK, priority 2011, dated 2017)
